Data reported in ChEMBL document CHEMBL1201862, “PubChem BioAssay data set” (2004).
Activity calls are given as the source filed them.

How the values were obtained:
Cytochrome P450 3A4 = Cytochrome P450 3A4 (Homo sapiens, UniProt P08684);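 also: CYP3A4 tested as one member of a cytochrome P450 panel screen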
[1] = Trypanosoma cruzi growth suppression in host cells – NIH3T3 host cells, beta-gal luminescence, confirmation (AID 2044); assay type: functional, cell-based;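 also: intracellular parasites grown in NIH/3T3 mouse fibroblasts as host cells; luminescent beta-galactosidase reporter signal from transgenic T. cruzi replicating inside host cells; inhibitors lower the luminescence signal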
[2] = NIH3T3 cell viability loss – ATP luminescence, mouse fibroblasts, counter-screen, dose response (AID 2010); assay type: functional, cell-based;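 also: cells exposed to compound for about 90 hours before reading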
Cytochrome P450 2C9 = Cytochrome P450 2C9 (Homo sapiens, UniProt P11712)
Cytochrome P450 2C9, sequence (P11712 whole entry): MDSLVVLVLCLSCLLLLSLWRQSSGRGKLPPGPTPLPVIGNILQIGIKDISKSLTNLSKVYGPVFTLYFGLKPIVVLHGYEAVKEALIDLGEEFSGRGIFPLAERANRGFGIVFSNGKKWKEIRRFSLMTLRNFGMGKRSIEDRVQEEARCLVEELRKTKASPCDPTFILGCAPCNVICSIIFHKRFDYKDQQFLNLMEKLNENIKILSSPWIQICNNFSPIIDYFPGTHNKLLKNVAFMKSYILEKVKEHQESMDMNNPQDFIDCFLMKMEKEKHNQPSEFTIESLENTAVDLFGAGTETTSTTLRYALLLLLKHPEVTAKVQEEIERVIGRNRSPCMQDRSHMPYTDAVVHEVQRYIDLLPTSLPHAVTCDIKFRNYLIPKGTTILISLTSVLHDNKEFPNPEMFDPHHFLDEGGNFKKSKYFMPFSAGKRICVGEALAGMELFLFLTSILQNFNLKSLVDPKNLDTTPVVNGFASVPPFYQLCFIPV

Streptococcus = test: GAS UMAA2166 growth inhibition – luminescence, BacTiterGlo, counter-screen for streptokinase expression inhibitor project, dose response (AID 1915); assay type: functional, organism-based;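 also: potency for reduction of bacterial viability or growth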
[3] = system: Streptococcus sp. 'group A'; test: Streptococcus pyogenes SK(-)GAS viability under kanamycin – luminescence, BacTiterGlo, confirmation, counter-screen for streptokinase expression inhibitor project, dose response (AID 1900); assay type: functional, organism-based
Streptokinase A = molecular target: T1, Streptokinase A (Streptococcus pyogenes serotype M1, UniProt P10520); test: viability-normalized secreted streptokinase activity reduction – plasminogen activation absorbance, OD405, dose response (AID 1914); assay type: functional, Streptococcus pyogenes M1 GAS;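 also: secreted streptokinase activity via plasminogen activation per viability signal from cell pellet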
T1 sequence (P10520 whole entry): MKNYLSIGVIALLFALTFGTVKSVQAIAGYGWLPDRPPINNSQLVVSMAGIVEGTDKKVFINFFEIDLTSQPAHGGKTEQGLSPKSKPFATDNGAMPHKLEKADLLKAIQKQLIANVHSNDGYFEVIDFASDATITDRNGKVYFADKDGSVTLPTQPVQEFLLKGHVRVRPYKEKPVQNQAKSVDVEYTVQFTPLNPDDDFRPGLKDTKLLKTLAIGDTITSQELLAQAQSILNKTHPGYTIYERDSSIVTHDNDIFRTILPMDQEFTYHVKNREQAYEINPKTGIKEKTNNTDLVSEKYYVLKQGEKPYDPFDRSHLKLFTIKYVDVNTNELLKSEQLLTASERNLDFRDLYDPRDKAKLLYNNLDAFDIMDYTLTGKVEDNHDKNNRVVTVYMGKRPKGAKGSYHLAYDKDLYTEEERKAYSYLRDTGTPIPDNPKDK

H4 = test: Luminescence Cell-Based Dose Response HTS to Identify Activators of 5'UTR Stem-Loop Driven Prion Protein mRNA Translation in H4 Neuroglioblastoma Cells. [Related pubchem assays: 1829 (Project Summary), 1814 (Primary HTS)]; assay type: functional; details: Homo sapiens
[4] = Luminescence Cell-Based Dose Response HTS to Identify Activators of Luciferase Translation or Activity in H4 […] Cells. [Related pubchem assays: 1829 (Project Summary), 1814 (Primary HTS)]; assay type: functional
Cytochrome P450 2C19 = Cytochrome P450 2C19 (Homo sapiens, UniProt P33261); test: Cytochrome panel assay with activity outcomes. Panel member name: p450-cyp2c19 Compounds with AC50 equal or less than 10 uM are considered active; assay type: functional; details: read-out: AC50
Cytochrome P450 2C19, sequence (P33261 whole entry): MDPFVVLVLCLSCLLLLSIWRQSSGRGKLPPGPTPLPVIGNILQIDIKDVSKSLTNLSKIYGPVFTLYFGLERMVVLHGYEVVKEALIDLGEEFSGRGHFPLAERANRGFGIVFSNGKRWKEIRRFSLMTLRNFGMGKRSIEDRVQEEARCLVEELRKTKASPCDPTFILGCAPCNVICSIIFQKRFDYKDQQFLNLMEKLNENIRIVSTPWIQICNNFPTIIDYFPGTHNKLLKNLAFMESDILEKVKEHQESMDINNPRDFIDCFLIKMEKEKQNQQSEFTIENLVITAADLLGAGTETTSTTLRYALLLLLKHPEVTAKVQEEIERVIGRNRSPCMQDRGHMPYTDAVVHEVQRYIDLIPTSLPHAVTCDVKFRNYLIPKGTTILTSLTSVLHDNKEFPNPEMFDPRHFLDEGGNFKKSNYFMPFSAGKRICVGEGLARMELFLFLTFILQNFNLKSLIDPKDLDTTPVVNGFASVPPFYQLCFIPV

Cytochrome P450 3A4, sequence (P08684 whole entry): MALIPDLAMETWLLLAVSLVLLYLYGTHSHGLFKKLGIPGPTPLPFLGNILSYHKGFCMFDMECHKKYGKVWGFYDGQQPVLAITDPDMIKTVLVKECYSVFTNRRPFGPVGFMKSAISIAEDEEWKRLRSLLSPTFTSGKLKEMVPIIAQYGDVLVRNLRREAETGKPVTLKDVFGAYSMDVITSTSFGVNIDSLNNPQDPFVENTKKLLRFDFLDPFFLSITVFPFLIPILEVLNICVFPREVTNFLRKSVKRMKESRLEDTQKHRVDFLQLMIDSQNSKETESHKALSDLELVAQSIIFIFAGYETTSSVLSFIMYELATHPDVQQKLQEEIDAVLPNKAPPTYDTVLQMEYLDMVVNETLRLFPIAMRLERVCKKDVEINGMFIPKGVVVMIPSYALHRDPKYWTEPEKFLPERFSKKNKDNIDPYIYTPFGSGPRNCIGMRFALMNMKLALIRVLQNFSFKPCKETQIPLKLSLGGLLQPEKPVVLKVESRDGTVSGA

Compound	EC50 [1]	EC50 [2]	also measured
CC12CS(=O)(=O)CC1SC(=S)N2c1ccccn1 (centres undefined)			AC50 (Cytochrome P450 3A4): 17.8 µM (inconclusive)
CN(C)CCn1c(=O)n(Cc2ccco2)c(=O)c2c3c(sc21)CCCCC3	0.196 µM (active)	> 60 µM (not active)	AC50 (Cytochrome P450 3A4): 12.6 µM (inconclusive)
COc1ccccc1CCn1c(=O)c(C)nc2cncnc21			AC50 (Cytochrome P450 2C9): 31.6 µM (inconclusive)
COc1ccc(C(C(=O)NC2CCCC2)N(C(=O)c2snc(-c3ccc(F)cc3)c2N)c2ccccc2)cc1 (centres undefined)			AC50 (Cytochrome P450 2C9): 0.891 µM (inconclusive)
Cc1cccc(CN2CCN(CCCc3ccccc3)CC2)c1	0.478 µM (active)	> 60 µM (not active)	
COc1cc(-c2cc(-c3ccccc3)nc(SCC(=O)Nc3nccs3)c2C#N)cc(OC)c1OC	1.72 µM (active)	> 30 µM (not active)	
COc1cccc(C2c3c(C)nn(-c4ccc([N+](=O)[O-])cc4)c3N=C3C(=O)Nc4ccccc4N32)c1 (centres undefined)	1.87 µM (active)	> 60 µM (not active)	
c1ccc(CCn2nnnc2C(c2cccnc2)N2CCN(c3nc4ccccc4s3)CC2)cc1 (centres undefined)	0.244 µM (active)	31.2 µM (active)	
CCOc1cc(N2CCOCC2)c(OCC)cc1NC(=O)C1=NN(c2cccc(C)c2)C(=O)CC1			EC50 (Streptococcus): 123 µM (active); EC50 [3]: 13.8 µM (active); EC50 (Streptokinase A): > 150 µM (not active)
COc1ccc(/C=C/c2ccc3cccc(O)c3n2)c(OC)c1OC			EC50 (Streptococcus): 6.25 µM (active); EC50 [3]: 4.85 µM (active)
C[C@@H](C(=O)NC1CCN(Cc2ccccc2)CC1)N1C(=O)N2CCc3c([nH]c4ccccc34)[C@@]2(C)C1=O	0.299 µM (active)	> 60 µM (not active)	
CC(C)(C)CC(=O)NC(=S)Nc1ccccc1C(F)(F)F			AC50 (Cytochrome P450 3A4): 22.4 µM (inconclusive)
CO[C@@H]1COC(=O)C/C=C\[C@@H](C)COC(=O)[C@H](COCc2ccccc2)NC(=O)C/C=C\[C@H]1C			AC50 (Cytochrome P450 3A4): 3.98 µM (inconclusive)
CCCc1ccc2oc(C(=O)N3CCC[C@H]3CO)c(C)c2c1			EC50 (H4): > 120 µM (not active); EC50 [4]: 1.11 µM (active)
CCOc1cc(/C=C2\N=C(C)OC2=O)cc(Br)c1OCC(=O)OC			AC50 (Cytochrome P450 2C9): 25.1 µM (inconclusive)
CC(C)(C)NC(=O)NC(=O)CSc1nnc2ccccn12			AC50 (Cytochrome P450 2C9): 17.8 µM (inconclusive)
Cc1ccc(NC(=O)NNS(=O)(=O)c2ccc(Br)cc2)cc1			AC50 (Cytochrome P450 2C9): 1 µM (inconclusive)
O=c1c(-c2ccccc2)nc2cncnc2n1Cc1ccccc1Cl			AC50 (Cytochrome P450 2C9): 3.16 µM (inconclusive); AC50 (Cytochrome P450 2C19): 7.94 µM (inconclusive)
O=C(Nc1nc(-c2ccccc2)cs1)C1CCCN(S(=O)(=O)c2cccc([N+](=O)[O-])c2)C1 (centres undefined)	0.173 µM (active)	> 60 µM (not active)	
O=C(Nc1ccc(N2CCOCC2)c(Cl)c1)c1ccc(Br)o1			EC50 [4]: 0.113 µM (active)
COc1ccc([C@@H](Nc2ccccn2)c2cc(C(C)(C)C)cc(C(C)(C)C)c2O)cc1			AC50 (Cytochrome P450 3A4): 2 µM (inconclusive)
O=C(Cc1ccccc1)NC(=S)Nc1ccc2oc(-c3ccccc3F)nc2c1			EC50 [4]: 3.01 µM (active)
CCOC(=O)C1=C(c2ccccc2)Nc2ncnn2C1c1ccc(OC)c(OC)c1OC (centres undefined)	1.84 µM (active)	> 60 µM (not active)	
Fc1ccc(COc2cccc(CNCc3ccncc3)c2)cc1	6.99 µM (active)	> 60 µM (not active)	
Oc1c(N=NC(S)=Nc2ccccc2F)c2ccccc2n1Cc1ccc(Cl)cc1	1.06 µM (active)	5.85 µM (active)	
COc1ccccc1N(CC(O)Cn1c2ccccc2c2ccccc21)S(=O)(=O)c1ccccc1 (centres undefined)	2.21 µM (active)	> 60 µM (not active)	
COc1ccccc1-c1nc(NCc2cccs2)c2ccccc2n1			AC50 (Cytochrome P450 2C19): 20 µM (inconclusive)
